The text below walks through data of ChEMBL document CHEMBL1201862, “PubChem BioAssay data set” (2004).

Assay [1] concerns HEK293. The assay can be described thus: NOD1 signaling inhibitors, primary screen, cell-based, luminescence, uHTS (AID 1578). The class given is functional. Conditions: Homo sapiens.
Assay [2] concerns HEK293. The assay can be described thus: cells. The class given is functional, cell-based. The following applies: Homo sapiens.
Assay [3] relates to HEK293. In words: cells. The class given is functional, cell-based. Conditions: Homo sapiens. This is another data set of the same source.
Assay [4] addresses Nucleotide-binding oligomerization domain-containing protein 2 (Homo sapiens, UniProt Q9HC29). The assay can be described thus: NOD2 signaling inhibitors, cell-based, luminescence, uHTS, HEK293 (AID 1566). The class given is functional.
Assay [5] concerns HEK293. The assay can be described thus: NOD2 signaling inhibitors in MDP-stimulated cells, cell-based, uHTS, luminescence (AID 2001). The class given is functional. The following applies: Homo sapiens.
Assay [6] has as its system HEK293. In words: cells. In kind it is functional, cell-based. The following applies: Homo sapiens. The source holds these as a separate data set.
Assay [7] concerns the target T1, Cysteine protease ATG4B (Homo sapiens, UniProt Q9Y4P1).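 Also: Fluorescence-based dose-response confirmation assay measuring inhibition of ATG4B activity.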
T1 sequence (Q9Y4P1 whole entry): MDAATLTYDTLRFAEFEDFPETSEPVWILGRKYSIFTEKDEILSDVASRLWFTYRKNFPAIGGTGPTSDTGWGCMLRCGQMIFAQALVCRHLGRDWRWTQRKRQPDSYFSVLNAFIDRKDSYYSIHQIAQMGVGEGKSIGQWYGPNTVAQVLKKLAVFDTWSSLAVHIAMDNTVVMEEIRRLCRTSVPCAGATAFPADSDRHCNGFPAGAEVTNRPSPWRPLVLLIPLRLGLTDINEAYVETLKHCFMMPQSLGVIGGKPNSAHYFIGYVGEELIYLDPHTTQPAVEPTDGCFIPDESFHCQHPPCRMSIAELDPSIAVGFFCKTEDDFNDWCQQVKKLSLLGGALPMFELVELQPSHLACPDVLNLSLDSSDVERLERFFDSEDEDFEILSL
The class given is functional.

Assay [8] concerns the target Phospholipase A2 (Homo sapiens, UniProt P04054). The class given is functional.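 Also: confirmatory dose-response counterscreen on phospholipase A2, testing hits that came from an ultra-high-throughput screen for ATG4B inhibitors.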
Assay [9] deals with Beta-galactosidase (Escherichia coli, UniProt Q8VNN2). In words: beta-galactosidase enzyme inhibitors and activators, dose response, artefact control for CCR6 antagonist project, biochemical, E. coli enzyme, set 3 (AID 504712). The class given is functional.
The target of assay [10] is Heat shock protein HSP 90-alpha (Homo sapiens, UniProt P07900). In kind it is functional, organism-based.
The target in assay [11] is Eukaryotic translation initiation factor 4E (Mus musculus, UniProt P63073). In words: eIF4E–eIF4G protein interaction inhibitors, dose response, biochemical, TR-FRET (AID 855).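 Also: potency for disrupting eIF4E binding to eIF4GI seen as loss of FRET.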 The class given is functional. Background: Time-resolved FRET reads energy transfer from a long-lived donor to a nearby acceptor.
The target in assay [12] is T2, Caspase-3 (Homo sapiens, UniProt P42574).
T2 sequence (P42574 whole entry): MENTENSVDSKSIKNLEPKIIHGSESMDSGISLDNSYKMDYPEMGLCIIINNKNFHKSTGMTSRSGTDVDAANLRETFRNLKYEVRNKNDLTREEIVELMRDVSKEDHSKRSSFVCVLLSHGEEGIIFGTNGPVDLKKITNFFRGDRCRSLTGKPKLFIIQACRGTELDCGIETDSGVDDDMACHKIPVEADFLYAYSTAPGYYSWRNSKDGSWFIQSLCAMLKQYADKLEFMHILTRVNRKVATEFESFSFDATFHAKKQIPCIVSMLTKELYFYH
The assay can be described thus: procaspase-3 activation potency of dual hits, dose response, counter-screen for dual procaspase-3/7 activator project, biochemical, absorbance, PC-3 D3A mutant (AID 504328).

Assay [13] addresses T3, Caspase-7 (Homo sapiens, UniProt P55210).
T3 sequence (P55210 whole entry): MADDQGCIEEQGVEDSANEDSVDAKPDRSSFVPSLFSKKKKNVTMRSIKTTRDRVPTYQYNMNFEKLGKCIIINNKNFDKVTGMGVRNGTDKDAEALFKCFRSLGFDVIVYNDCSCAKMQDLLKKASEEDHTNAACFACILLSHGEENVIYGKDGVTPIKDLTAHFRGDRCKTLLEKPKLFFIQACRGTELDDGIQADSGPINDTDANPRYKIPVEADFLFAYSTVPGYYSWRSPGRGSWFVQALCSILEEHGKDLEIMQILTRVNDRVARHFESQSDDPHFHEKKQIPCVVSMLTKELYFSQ
In words: procaspase-7 activators, dose response, dual procaspase-3/-7 activator project, biochemical, absorbance, human (AID 504330).

The target in assay [14] is Melanin-concentrating hormone receptor 1 (Homo sapiens, UniProt Q99705). In words: Late-stage fluorescence-based counterscreen for antagonists of the G-protein coupled receptor 7 (GPR7): cell-based dose response assay to identify antagonists of the melanin-concentrating hormone receptor 1 (MCHR1). [Related pubchem assays (depositor defined):AID1861, AID1880, AID1952, AID2148, AID2251, AID2257, AID485339]. The class given is functional. For orientation: Counterscreens check selectivity or assay interference.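 Also: stimulated with 30 nM MCH peptide agonist.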

Assay [15] addresses T4, Neuropeptides B/W receptor type 1 (Homo sapiens, UniProt P48145).
T4 sequence (P48145 whole entry): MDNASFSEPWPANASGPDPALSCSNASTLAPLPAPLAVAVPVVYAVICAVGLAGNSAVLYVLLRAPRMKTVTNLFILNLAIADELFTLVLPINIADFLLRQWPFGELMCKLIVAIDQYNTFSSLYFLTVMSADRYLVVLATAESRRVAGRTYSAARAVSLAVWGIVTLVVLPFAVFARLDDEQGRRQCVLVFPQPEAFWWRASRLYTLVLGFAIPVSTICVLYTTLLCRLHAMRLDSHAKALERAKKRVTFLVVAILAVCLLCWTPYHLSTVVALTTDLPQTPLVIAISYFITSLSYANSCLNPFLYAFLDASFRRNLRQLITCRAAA
The assay can be described thus: GPR7 antagonist potency, late-stage follow-up, cell-based, fluorescence, dose response (AID 463251). In kind it is functional.

Assay [16] concerns the target T5, Replicative DNA helicase DnaB (Mycobacterium tuberculosis, UniProt P9WMR3).
T5 sequence (P9WMR3 whole entry): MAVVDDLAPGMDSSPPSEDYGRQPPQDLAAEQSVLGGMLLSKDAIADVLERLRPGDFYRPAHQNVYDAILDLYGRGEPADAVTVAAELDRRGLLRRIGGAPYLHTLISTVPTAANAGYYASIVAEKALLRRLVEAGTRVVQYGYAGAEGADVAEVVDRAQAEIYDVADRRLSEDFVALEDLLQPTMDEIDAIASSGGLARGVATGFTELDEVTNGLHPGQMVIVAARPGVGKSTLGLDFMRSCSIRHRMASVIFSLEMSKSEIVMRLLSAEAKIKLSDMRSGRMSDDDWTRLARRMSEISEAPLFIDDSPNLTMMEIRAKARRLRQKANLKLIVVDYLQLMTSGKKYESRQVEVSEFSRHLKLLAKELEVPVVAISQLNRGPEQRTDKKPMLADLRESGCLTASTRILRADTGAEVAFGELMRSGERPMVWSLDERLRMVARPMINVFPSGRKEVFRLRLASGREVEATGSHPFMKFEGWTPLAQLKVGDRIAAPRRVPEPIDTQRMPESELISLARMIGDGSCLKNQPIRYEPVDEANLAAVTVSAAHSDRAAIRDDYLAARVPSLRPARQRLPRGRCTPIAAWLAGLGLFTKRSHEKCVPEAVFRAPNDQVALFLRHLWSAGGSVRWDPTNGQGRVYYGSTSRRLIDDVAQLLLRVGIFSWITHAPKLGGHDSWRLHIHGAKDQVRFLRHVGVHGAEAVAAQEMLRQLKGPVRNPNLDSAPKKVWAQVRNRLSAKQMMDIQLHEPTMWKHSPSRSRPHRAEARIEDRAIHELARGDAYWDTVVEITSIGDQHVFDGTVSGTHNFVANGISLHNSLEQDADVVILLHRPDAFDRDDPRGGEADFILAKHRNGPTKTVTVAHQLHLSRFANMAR
The assay can be described thus: DnaB intein splicing inhibitors, dose response, biochemical, cell-free fluorescence (AID 449749). The class given is functional.

For assay [17], the target named is T6, Protein RecA (Mycobacterium tuberculosis, UniProt P9WHJ3).
T6 sequence (P9WHJ3 whole entry): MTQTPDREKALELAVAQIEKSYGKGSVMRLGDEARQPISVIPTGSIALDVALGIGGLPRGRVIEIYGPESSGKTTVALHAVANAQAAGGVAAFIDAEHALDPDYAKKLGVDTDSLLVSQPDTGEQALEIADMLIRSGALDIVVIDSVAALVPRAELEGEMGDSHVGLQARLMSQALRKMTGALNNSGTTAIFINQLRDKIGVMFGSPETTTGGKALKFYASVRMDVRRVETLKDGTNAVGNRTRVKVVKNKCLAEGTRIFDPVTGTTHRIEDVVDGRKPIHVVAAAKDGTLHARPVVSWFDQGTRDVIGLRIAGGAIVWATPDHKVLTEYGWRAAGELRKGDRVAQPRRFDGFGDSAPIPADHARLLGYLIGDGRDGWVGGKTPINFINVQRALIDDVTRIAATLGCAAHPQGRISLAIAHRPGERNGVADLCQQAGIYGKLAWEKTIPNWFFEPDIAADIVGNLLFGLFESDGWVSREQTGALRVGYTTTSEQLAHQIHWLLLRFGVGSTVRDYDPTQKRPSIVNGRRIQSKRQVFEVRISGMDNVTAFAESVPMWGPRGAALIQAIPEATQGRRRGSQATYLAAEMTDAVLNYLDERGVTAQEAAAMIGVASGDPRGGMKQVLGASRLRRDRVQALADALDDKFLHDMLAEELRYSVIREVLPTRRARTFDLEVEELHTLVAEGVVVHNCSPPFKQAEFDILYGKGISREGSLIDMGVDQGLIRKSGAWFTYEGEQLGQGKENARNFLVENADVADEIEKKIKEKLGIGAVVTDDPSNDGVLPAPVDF
In words: Fluorescence Cell-Free Homogeneous Dose Retest to Identify Inhibitors of RecA-Intein Splicing Activity. [Related pubchem assays (depositor defined):AID2097, AID2223, AID489010, AID492950]. The class given is functional.

Assay [18] has as its target X-box-binding protein 1 (Homo sapiens, UniProt P17861). The class given is functional, Cricetulus griseus.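 Also: confirmatory dose-response counter-screen serving a CHOP assay.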
For assay [19], the target named is Delta-type opioid receptor (Homo sapiens, UniProt P41143). The assay can be described thus: Counterscreen for agonists of heterodimerization of the mu 1 (OPRM1) and delta 1 (OPRD1) opioid receptors: Luminescence-based cell-based high throughput dose response assay to identify agonists of OPRD1 homodimerization. [Related pubchem assays (depositor defined):AID504326, AID504355, AID504692, AID504904, AID504905]. In kind it is functional.

Assay [20] addresses Mu-type opioid receptor (Homo sapiens, UniProt P35372). The assay can be described thus: Counterscreen for agonists of heterodimerization of the mu 1 (OPRM1) and delta 1 (OPRD1) opioid receptors: Luminescence-based cell-based high throughput dose response assay to identify agonists of OPRM1 homodimerization. In kind it is functional.
Assay [21] addresses 5-hydroxytryptamine receptor 5A (Homo sapiens, UniProt P47898). In words: Counterscreen for agonists of OPRM1-OPRD1 heterodimerization: luminescence-based cell-based high throughput dose response assay to identify agonists of 5-hydroxytryptamine (serotonin) 5A receptor (HTR5A). [Related pubchem assays (depositor defined):AID504326, AID504355, AID504692, AID504904, AID504905]. The class given is functional.

The structures appear in SMILES notation. Active and inactive are the calls of the source.

Chain of Eukaryotic translation initiation factor 4E (P63073 whole entry): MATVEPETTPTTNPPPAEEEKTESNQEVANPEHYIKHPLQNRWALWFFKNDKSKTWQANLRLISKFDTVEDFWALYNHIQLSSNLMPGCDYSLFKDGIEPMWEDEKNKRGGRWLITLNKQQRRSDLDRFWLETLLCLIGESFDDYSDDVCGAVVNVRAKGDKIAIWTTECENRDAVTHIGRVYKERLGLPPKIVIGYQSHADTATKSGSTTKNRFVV
Chain of Nucleotide-binding oligomerization domain-containing protein 2 (Q9HC29 whole entry, the tested form may be a part): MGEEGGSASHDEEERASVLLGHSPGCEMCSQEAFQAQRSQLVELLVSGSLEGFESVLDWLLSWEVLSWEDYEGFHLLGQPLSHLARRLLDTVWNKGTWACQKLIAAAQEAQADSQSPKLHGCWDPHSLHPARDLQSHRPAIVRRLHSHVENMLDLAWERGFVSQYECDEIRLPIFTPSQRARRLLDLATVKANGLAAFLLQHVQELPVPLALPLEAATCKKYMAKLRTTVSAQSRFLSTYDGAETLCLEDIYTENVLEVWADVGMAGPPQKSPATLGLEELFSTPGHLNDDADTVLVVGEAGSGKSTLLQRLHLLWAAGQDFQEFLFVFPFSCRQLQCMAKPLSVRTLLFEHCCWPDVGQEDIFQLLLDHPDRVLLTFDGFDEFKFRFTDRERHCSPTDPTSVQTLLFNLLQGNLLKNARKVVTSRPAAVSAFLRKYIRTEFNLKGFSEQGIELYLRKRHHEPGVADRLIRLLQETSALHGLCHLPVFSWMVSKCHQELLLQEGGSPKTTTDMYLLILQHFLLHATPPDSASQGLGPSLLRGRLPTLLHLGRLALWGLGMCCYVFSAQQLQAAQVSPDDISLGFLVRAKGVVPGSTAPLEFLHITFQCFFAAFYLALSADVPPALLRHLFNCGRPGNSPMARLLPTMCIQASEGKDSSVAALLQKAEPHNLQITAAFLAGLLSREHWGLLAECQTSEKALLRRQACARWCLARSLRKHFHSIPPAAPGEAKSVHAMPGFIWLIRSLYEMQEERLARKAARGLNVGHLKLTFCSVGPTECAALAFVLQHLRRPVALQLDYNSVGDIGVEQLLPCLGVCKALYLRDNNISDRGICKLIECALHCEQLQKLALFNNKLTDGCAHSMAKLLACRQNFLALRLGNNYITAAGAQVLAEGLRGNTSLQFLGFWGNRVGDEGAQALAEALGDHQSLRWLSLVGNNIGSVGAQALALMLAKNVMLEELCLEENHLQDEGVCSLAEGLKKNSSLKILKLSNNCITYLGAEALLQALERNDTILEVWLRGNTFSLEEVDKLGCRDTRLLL
Chain of Beta-galactosidase (Q8VNN2 whole entry): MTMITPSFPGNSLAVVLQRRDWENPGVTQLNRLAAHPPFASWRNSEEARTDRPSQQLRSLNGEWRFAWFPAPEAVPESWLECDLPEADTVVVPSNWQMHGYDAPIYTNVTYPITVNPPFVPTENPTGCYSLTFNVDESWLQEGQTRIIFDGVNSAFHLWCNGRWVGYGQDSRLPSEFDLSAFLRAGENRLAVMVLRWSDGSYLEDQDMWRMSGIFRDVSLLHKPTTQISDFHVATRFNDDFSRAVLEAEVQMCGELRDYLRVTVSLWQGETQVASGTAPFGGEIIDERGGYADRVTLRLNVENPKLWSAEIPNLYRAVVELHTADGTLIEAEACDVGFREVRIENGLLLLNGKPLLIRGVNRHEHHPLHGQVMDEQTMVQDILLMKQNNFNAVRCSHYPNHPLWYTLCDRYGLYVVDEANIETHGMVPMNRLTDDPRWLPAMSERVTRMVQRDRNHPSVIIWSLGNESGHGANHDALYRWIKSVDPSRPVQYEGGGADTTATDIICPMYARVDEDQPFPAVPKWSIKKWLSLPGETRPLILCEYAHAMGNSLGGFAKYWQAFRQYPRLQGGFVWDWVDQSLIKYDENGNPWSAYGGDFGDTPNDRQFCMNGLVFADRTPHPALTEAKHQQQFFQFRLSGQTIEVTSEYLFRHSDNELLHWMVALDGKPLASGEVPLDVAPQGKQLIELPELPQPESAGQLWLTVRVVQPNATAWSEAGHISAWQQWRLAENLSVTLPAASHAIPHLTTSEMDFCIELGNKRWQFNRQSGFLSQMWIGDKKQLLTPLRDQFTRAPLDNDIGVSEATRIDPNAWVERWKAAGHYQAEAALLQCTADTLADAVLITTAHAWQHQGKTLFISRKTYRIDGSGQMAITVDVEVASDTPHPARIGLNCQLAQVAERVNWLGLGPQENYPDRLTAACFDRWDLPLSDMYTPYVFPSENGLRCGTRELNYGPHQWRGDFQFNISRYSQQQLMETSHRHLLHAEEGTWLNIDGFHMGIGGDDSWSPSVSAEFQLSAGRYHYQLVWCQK
Chain of Melanin-concentrating hormone receptor 1 (Q99705 whole entry): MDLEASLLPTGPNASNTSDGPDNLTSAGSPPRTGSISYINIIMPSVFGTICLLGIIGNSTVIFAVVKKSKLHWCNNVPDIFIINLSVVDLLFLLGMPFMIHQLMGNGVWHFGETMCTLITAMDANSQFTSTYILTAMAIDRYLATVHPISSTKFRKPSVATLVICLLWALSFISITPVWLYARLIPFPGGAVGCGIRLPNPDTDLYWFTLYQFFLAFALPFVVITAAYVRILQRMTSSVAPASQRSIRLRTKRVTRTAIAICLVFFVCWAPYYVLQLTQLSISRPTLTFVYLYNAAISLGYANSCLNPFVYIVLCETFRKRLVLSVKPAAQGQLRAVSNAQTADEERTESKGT
Chain of Mu-type opioid receptor (P35372 whole entry): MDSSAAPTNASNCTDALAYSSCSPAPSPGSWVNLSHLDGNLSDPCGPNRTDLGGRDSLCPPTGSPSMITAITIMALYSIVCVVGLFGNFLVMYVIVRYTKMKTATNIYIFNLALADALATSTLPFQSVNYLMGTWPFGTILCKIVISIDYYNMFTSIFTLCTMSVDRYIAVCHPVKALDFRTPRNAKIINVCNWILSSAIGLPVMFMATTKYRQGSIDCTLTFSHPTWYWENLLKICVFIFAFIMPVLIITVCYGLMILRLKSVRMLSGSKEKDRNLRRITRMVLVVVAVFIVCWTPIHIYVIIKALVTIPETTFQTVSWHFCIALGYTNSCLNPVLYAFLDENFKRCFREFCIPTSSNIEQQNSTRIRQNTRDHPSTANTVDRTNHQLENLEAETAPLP
Chain of X-box-binding protein 1 (P17861 whole entry): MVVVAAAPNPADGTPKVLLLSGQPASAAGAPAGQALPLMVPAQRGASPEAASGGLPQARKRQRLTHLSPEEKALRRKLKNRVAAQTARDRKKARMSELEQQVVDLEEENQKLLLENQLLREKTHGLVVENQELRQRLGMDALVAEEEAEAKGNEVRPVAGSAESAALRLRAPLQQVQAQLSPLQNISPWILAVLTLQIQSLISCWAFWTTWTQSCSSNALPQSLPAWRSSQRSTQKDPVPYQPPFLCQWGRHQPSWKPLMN
Chain of Phospholipase A2 (P04054 whole entry): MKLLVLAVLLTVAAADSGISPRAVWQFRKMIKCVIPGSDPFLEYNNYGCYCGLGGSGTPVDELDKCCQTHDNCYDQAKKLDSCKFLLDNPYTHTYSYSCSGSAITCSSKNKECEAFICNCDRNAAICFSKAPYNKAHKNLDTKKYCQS
Chain of Delta-type opioid receptor (P41143 whole entry): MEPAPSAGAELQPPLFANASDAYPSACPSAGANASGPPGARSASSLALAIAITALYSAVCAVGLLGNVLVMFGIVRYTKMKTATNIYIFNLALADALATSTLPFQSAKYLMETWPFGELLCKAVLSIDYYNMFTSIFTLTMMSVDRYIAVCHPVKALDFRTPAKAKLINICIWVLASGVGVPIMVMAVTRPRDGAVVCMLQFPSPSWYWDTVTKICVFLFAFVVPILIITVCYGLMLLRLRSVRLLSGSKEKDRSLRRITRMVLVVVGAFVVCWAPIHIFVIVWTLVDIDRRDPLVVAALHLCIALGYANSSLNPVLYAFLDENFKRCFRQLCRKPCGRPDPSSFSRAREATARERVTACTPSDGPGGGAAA
Chain of 5-hydroxytryptamine receptor 5A (P47898 whole entry): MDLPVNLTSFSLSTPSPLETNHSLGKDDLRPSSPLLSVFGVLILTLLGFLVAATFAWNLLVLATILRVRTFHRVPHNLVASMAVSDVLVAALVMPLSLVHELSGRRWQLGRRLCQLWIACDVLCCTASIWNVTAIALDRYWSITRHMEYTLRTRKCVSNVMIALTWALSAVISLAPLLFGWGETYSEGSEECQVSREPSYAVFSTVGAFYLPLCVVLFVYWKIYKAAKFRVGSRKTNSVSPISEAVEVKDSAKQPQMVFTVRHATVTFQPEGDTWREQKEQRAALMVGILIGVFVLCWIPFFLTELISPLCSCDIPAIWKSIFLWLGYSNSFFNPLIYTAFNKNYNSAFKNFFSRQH

`Cc1cc(C(=O)CSc2nnc(-c3ccco3)o2)c(C)n1-c1ccc2c(c1)OCCO2`: the EC50 in assay [1] was 5.37 µM (active); in assay [4], > 20 µM (inactive). Further, the 50% inhibitory concentration (IC50) was 13.3 µM (active) in [2], > 20 µM (inactive) in [3], 14.5 µM (inactive) in assay [5] and > 20 µM (inactive) in [6].

`COc1ccc2nc(N3CCCCC3)c(/C=C3\SC(=S)NC3=O)cc2c1`: the EC50 is 2.17 µM (active) in assay [1] and 16.2 µM (active) in assay [4]. The IC50 was 4.9 µM (active) in [2]; 19.5 µM (active) in [3]; 4.26 µM (inactive) in assay [5]; > 20 µM (inactive) in assay [6]; 4.24 µM (active) in assay [7]; 2.47 µM (active) in [8].

Take `O=C(Oc1ccc(Cl)c2cccnc12)c1cccnc1`: the IC50 in assay [9] was > 66.6 µM (inactive). In assay [10], the AC50 is 8.18 µM (active).

Take `CC(C)Oc1cccc(C(=O)NC(=S)Nc2cccc(C(F)(F)F)c2)c1`: the IC50 in assay [9] was > 66.6 µM (inactive).

On to `CCOc1ccc(-n2c(-c3ccco3)n[nH]c2=S)cc1`, for which the IC50 in [11] was > 64 µM (inactive).

For the compound `O=C(Nc1ccc(Cc2ccncc2)cc1)C1CCC(N2C(=O)C3C4C=CC(C5CC45)C3C2=O)CC1` (stereo not drawn), the EC50 in assay [12] and in [13] was > 85.3 µM (inactive) each time.

For `COC(=O)C1=NN(c2ccc(Cl)cc2)C2C(=O)N(c3ccccc3OC)C(=O)C12` (stereo not drawn), the EC50 in assay [12] and in assay [13] was > 85.3 µM (inactive) each time.

Consider `O=c1c(Oc2ccc(O)cc2)c(Cl)cnn1-c1ccc(F)cc1`, for which the IC50 in assay [14] was 8 µM (active); in [15] it was 8.7 µM (active).

For the compound `N#Cc1c(Cl)c(Cl)c2nnc(-c3ccc(Br)cc3)n2c1Cl`, the IC50 in [11] was > 64 µM (inactive). For the same compound, the AC50 in assay [16] is 10.2 µM (active). Further, in [17], the 50% effective concentration (EC50) was 9.3 µM (active).

As to `O=C(C1CCCCN1Cc1c(F)cccc1Cl)N1CCN(c2ccc([N+](=O)[O-])cc2)CC1` (stereo not drawn), the 50% inhibitory concentration (IC50) in assay [14] and in assay [15] was 3.3 µM (active) each time.

With `COc1cc(C(=O)OC(C)C(=O)NCC2CCCCC2)cc(NC(=O)c2ccco2)c1OC` (stereo not drawn), in assay [18], the “Absolute IC50 (XBP1)” value stood at 10 µM. In addition, the EC50 in assay [19], in assay [20] and in assay [21] was > 92.5 µM (inactive) each time.

What is called EC50 is the concentration needed to bring the measured effect to its halfway point. As usually defined, the IC50 is the concentration that gives 50% inhibition. Broadly, the AC50 is the midpoint of the concentration-response curve, whichever way the signal moves.
